One block for each substance: values may come before it.
Experiments:
[1] = stability towards water, air, moisture and heat (qualitative statements); format: physicochemical; conditions: for air / moisture stability: air and moisture
[2] = solubility in solvents (qualitative statements); format: physicochemical
[3] = background statement; cited from earlier work

thermal stability [1]: thermally stable | air / moisture stability [1]: highly air sensitive
Substance: (Cp(CH2)2N(CH2)5)2TiMe2 [Compound 3]

solubility in a polar solvent ([2]; polar solvent such as methanol, water and acetonitrile): soluble | water solubility ([2]; water): water soluble | air / moisture stability [1]: air stable | storage stability ([1]; storage of the protected titanocene): can be stored indefinitely
Substance: (CpCH2CH2N(CH2)2(CH2)2)2TiCl2.2HCl [Compound 2]

solubility in aprotic, polar and non-polar solvents ([2]; solvents such as ether and toluene): soluble | air / moisture stability [1]: highly air and moisture sensitive
Substance: (CpCH2CH2N(CH2)2)2)TiCl2 [Compound 1]

Substance: titanocene dichloride
stability in aqueous solution [3]: unstable
